Counter-ions that a name gives are not always drawn.
Tests used:
[1] = tested on: Nb2-U17 lymphoma; assay: Nb2-U17 lymphoma transplant efficacy in Nb rats (FIGS. 2-3); type: in vivo, rat; settings: for anti-tumour effect at 50% of maximum tolerated dose, relative potency: half subacutely toxic dose, single i.p. (AHVB 1.5, navelbine 1.0, vincristine 0.35 mg/kg); for time to regression of tumours to essential non-palpability: single i.p. subacutely toxic dose (AHVB 3.0, navelbine 2.0, vincristine 0.7 mg/kg); for recurrence of tumours after day 10 / time after which most of the lost animal weight was regained: single i.p. subacutely toxic dose, Nb2-U17 rats
Source text: The U17 cell line was originally derived from a transplantable malignant lymphoma that arose spontaneously in male Noble rats (British Columbia Cancer Research center Joint Animal Breeding Facility with parents obtained from the National Institutes of Health, Bethesda, Md.). The cell line is prolactin dependent and can readily be cultured in vitro. U17 derived solid tumours are generated by subcutaneous injection (via the trocar method) of a small (2 mm^2) piece of tumour tissue obtained from male Noble rat. Tumour tissue used for the implants arose two weeks after injection of 5×10^6 U17 cells (from culture) subcutaneously in the nape of the neck. For assessing the anti-tumour activity of AHVB, tumour bearing animals (2-4 gm tumours) were given a single treatment of drug and tumour size was measured as a function of time following treatment. The anti-tumour activity was assessed at a series of different doses in order to determine the maximum therapeutic dose of AHVB. Comparative studies between vincristine, vinblastine and AHVB were performed.
Cultures of the non-metastatic, pre-T Nb2 lymphoma line originally developed at The University of British Columbia and designated Nb2-U17 (Anticancer Research 14:2485-2492, 1994), and are available from the British Columbia Cancer Research Center. Cells from exponentially growing Nb2-U17 suspension cultures were injected subcutaneously into methoxyflurane-anesthetized, mature male Nb rats (5 rats; 310-380 grams; 5×10^6 cells/rat in 1 ml of culture medium) at the nape of the neck using a 1.5" 20-gauge needle. At about 3 weeks, when the tumours reached a size of 4-7 cm (length+width), the animals were sacrificed and the tumours used for transplantation as described below.
A tumour from a rat was excised, minced and the tumour tissue was put into trocars (2", 13 gauge). The tissue samples were implanted subcutaneously in the nape of the neck of methoxyflurane-anesthetized male Nb rats (248-404 grams; 1 trocar per rat). This procedure was repeated 5 times to get a total of 60 tumour-bearing rats to be used for efficacy studies of the 3 drugs.
When the tumours were well established (1.5-2 weeks later), three separate groups of 20 rats, as closely matched as possible in terms of both tumour weight and rat weight, were selected for administration of the three test articles (i.e. one group for each test article).
Vincristine was administered to rats weighing 281-384 grams, bearing tumours weighing 6.3-16.3 grams. Navelbine was administered to rats weighing 274-389 grams bearing tumours weighing 9.1-23.3 grams. AHVB was administered to rats weighing 303-400 grams, bearing tumours weighing 7.9-25.9 grams. Tumour weights were estimated using the hemi-ellipsoid model (weight in grams=[…] in cm).
The oncolytic effects of each of the three drugs were assessed at a subacutely toxic dose, determined for each drug in preliminary studies using non-tumour-bearing, mature male Nb rats, i.e. 3.0, 2.0 and 0.7 mg/kg for […], navelbine and vincristine, respectively as illustrated in FIG. 2. In addition, each drug was assessed at 50% and 25% of its subacutely toxic dose. Five tumour-bearing rats were used to evaluate the effect at each dose level. The drugs were administered intraperitoneally as a single bolus in a volume of 0.19-0.31 ml, as indicated by the weight of the animals. To this end, drug preparations were diluted to appropriate concentrations using sparged saline adjusted with acetic acid to pH 4.2. For each drug, a group of 5 control rats received an intraperitoneal injection of the equivalent amount of saline (pH 4.2). The tumour-bearing rats were organized in the following groups:
Following administration of the test articles, the animals; weight and tumour size (using calipers) were determined daily until the tumour reached an estimated weight of 35 grams, or started to ulcerate, at which times the animals were sacrificed (by carbondioxide inhalation) and subjected to necropsy. […]

[2] = tested on: SKOV3 cells; assay: cytotoxicity on SKOV3 cells (FIG. 8); type: cell-based; settings: Homo sapiens, SK-OV-3, 72 h; SKOV3, 3 day incubation
[3] = weight loss / toxicity in BDF1 mice bearing P388 tumours (FIG. 4); type: in vivo
Protocol: Groups (five mice per group) of female BDFI mice (Charles Rivers, Canada) were injected (intraperitoneal) with 10^6 P388 cells (as described above). One day after tumor cell inoculation, the mice were given a bolus intravenous injection of indicated drug via the lateral tail vein. Control groups were injected with saline. Free drug samples were prepared on the day of injection such that the final concentrations were sufficient to deliver the indicated drug dose in a volume of 200 μl. All dilutions were made using 0.9% Sodium Chloride Injection USP. The mice were briefly (less than 30 sec.) restrained during intravenous injections. Dilation of the vein was achieved by holding the animals under a heat lamp for a period of between five and ten minutes. Following administration of the test articles, animals were weighed daily for fourteen days and monitored for signs of stress twice daily for the first 14 days (once daily on weekends) and once daily for the remainder of the study. Severely distressed animals were terminated by CO2 asphyxiation and the time of death was recorded to occur on the following day. Although complete dose titrations were completed for each drug, the data shown in FIG. 6 is that obtained after administration of the free drugs at their maximum tolerated dose. This was 3, 40 and 40 mg/kg for vincristine, navelbine and AHVB, respectively.
After treating mice (bearing the P388 tumor) with a single dose of the indicated drug, animals were examined twice daily for the first 14 days (once daily on weekends). Weight gain in the control is an indication of tumor progression.
The studies were conducted as described for FIG. 6. The maximum tolerated dose of AHVB (40 mg/kg) as specified in these studies reflects a very acute (within 1 hour) toxic reaction that limits further dose excalatin for i.v. administration of AHVB.

[4] = cited from earlier work; for dose limiting toxicity: humans
[5] = tested on: L1210 leukemia; settings: cited from earlier work
[6] = tested on: non-small cell lung cancer; settings: patients; cited from earlier work
[7] = tested on: cells derived from human lung cancer; settings: cited from earlier work
[8] = tested on: human rhabdosarcomas; settings: in vivo; cited from earlier work
[9] = relative to other vinca alkaloids; cited from earlier work
[10] = tested on: nerves; settings: vs vinblastine, vindesine; cited from earlier work

With `CCC1=CC2CN(CCc3c([nH]c4ccccc34)C(C(=O)OC)(c3cc4c(cc3OC)N(C)C3C(O)(C(=O)OC)C(OC(C)=O)C5(CC)C=CCN6CCC43C65)C2)C1` (centres unmarked) [AHVB, 3',4'-anhydrovinblastine] as the compound, how does the “anti-tumour effect at 50% of maximum tolerated dose, relative potency” value [1] read?
Its value is “less potent than vincristine”.

And the “time to regression of tumours to essential non-palpability” value [1]?
Its value is at most 5 days.

What about the “recurrence of tumours after day 10” value [1] of the same compound?
Its value is “occurred to about the same extent”.

And the “time after which most of the lost animal weight was regained” value [1]?
The value was “about 17 days”.

And the IC50 [2]?
Its IC50 is 4 µM.

What about the “time of very acute toxic reaction that limits dose escalation” value ([3]; i.v., at maximum tolerated dose 40 mg/kg) of the same compound?
The value was at most 1 h.

What about the “toxicity ranking (vinca alkaloid induced weight loss)” value ([3]; single i.v. injection at maximum tolerated dose, AHVB 40 mg/kg) of the same compound?
Its value is “least toxic of the three drugs evaluated”.

Which dose limiting toxicity [4] does the source give for `CCC1=C[C@@H]2CN(C1)Cc1c([nH]c3ccccc13)[C@@](C(=O)OC)(c1cc3c(cc1OC)N(C)[C@H]1[C@@](O)(C(=O)OC)[C@H](OC(C)=O)[C@]4(CC)C=CCN5CC[C@]31[C@@H]54)C2` [navelbine, 3',4'-didehydro-4'-deoxy-C'-norvincaleukoblastine-di-L-tartrate] here?
The dose limiting toxicity was “hematological toxicities and not neurological side effects”.

What about the local side effects ([4]; intravenous) of the same compound?
Its local side effects is “phlebitia or extravasion injury as it is a moderate vasicant”.

And the “incidence of constipation, vomiting, diarrhea, anorexia, and stomatitis” value ([4]; patients, relative to nausea)?
The value was “slightly lesser fraction”.

And the “incidence of mild to moderate nausea” value ([4]; patients)?
The value was “roughly one-third”.

What about the “incidence of mild to moderate peripheral neuropathy (paresthesia and hypesthesia)” value ([4]; single agent) of the same compound?
Its value is 10 % of patients.

What about the “anti-tumour effect at 50% of maximum tolerated dose, relative potency” value [1] of the same compound?
Its value is “less potent than AHVB”.

What about the “time to regression of tumours to essential non-palpability” value [1] of the same compound?
The value was at most 5 days.

And the “recurrence of tumours after day 10” value [1]?
The value was “occurred to about the same extent”.

What about the “time after which most of the lost animal weight was regained” value [1] of the same compound?
The value was “about 17 days”.

What about the “potency against L1210 leukemia” value [5] of the same compound?
Its value is “less potent than vinbiastine and vincristine”.

What about the “clinical utility in non-small cell lung cancer” value [6] of the same compound?
The value was “support its utility in treating non-small cell lung cancer”.

What about the “activity against cells derived from human lung cancer” value [7] of the same compound?
The value was “active”.

What about the “toxicity at maximum tolerated dose” value ([3]; i.v., compared with acute toxicity of AHVB) of the same compound?
Its value is “more prolonged toxicity”.

Which results are given for `CC[C@]1(O)C[C@H]2CN(CCc3c([nH]c4ccccc34)[C@@](C(=O)OC)(c3cc4c(cc3OC)N(C=O)[C@H]3[C@@](O)(C(=O)OC)[C@H](OC(C)=O)[C@]5(CC)C=CCN6CC[C@]43[C@@H]65)C2)C1` [vincristine, Sulfate of 22-oxovincaleukoblastine]?
dose limiting toxicity [4]: peripheral neuropathy (in the absence of hematological toxicity); other adverse reactions reported ([4]; i.v.): abdominal cramps, ataxia, foot drop, weight loss, optic atrophy with blindness, transient cortical blindness, fever, cranial nerve manifestations, parehesia and numbness of the digits, polyuria, dysuria, oral ulceration, headache, vomiting, diarrhea, and intestinal necrosis and/or perforation; intrathecal administration outcome ([4]; intrathecal): uniformly fatal; adverse reactions that can occur with single weekly doses ([4]; single weekly doses, i.v.): leukopenia, neuritic pain, constipation, and difficulty in walking; most common adverse reaction ([4]; single weekly doses): hair loss; most troublesome adverse reactions ([4]; single weekly doses): neuromuscular in origin; time to regression of tumours to essential non-palpability [1]: ≤ 5 days; recurrence of tumours after day 10 [1]: recurrence of tumours was not observed; time after which most of the lost animal weight was regained [1]: about 17 days; activity in human rhabdosarcomas transplanted in nude mice [8]: very effective; terminal elimination phase of plasma clearance [9]: extended terminal elimination phase of plasma clearance; uptake into nerves, times faster than the other drugs [10]: 4 times

— patent US6011041A, “Use of anhydrovinblastine” (priority 1996, dated 2000)
